ChEMBL document CHEMBL1201862, “PubChem BioAssay data set” (2004)
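Tested at 5 concentrations; 48 h exposure; 96-well plates; endpoints linearly interpolated, else capped at highest concentration. GI50 is the concentration that inhibits growth by half.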 Active and inactive are the calls of the source. No stated cut-off is given here; in the data, active = GI50 up to about 1.1 µM and inactive = higher.

Assays:
Assay in all cases: NCI anticancer screen, dose series, 48 h
786-0 = test system: 786-0
A498 = test system: A498
A549 = test system: A549
CAKI-1 = test system: CAKI-1
CCRF-CEM = test system: CCRF-CEM
COLO 205 = test system: COLO 205
DMS-114 = test system: DMS-114
DMS-273 = test system: DMS-273
HCC 2998 = test system: HCC 2998
HCT-116 = test system: HCT-116
HCT-15 = test system: HCT-15
HL-60 = test system: HL-60
HOP-62 = test system: HOP-62
HT-29 = test system: HT-29
IGROV-1 = test system: IGROV-1
K562 = test system: K562
KM-20L2 = test system: KM-20L2
KM12 = test system: KM12
LOX IMVI = test system: LOX IMVI
LXFL 529 = test system: LXFL 529
M14 = test system: M14
M19-MEL = test system: M19-MEL
MOLT-4 = test system: MOLT-4
Malme-3M = test system: Malme-3M
NCI-H226 = test system: NCI-H226
NCI-H23 = test system: NCI-H23
NCI-H460 = test system: NCI-H460
NCI-H522 = test system: NCI-H522
OVCAR-3 = test system: OVCAR-3
OVCAR-4 = test system: OVCAR-4
OVCAR-5 = test system: OVCAR-5
OVCAR-8 = test system: OVCAR-8
RPMI-8226 = test system: RPMI-8226
RXF 393 = test system: RXF 393
SF-295 = test system: SF-295
SF-539 = test system: SF-539
SK-MEL-2 = test system: SK-MEL-2
SK-OV-3 = test system: SK-OV-3
SN12C = test system: SN12C
SNB-19 = test system: SNB-19
SNB-75 = test system: SNB-75
SNB-78 = test system: SNB-78
SR = test system: SR
SW-620 = test system: SW-620
TK-10 = test system: TK-10
U-251 = test system: U-251
UACC-257 = test system: UACC-257
UACC-62 = test system: UACC-62
UO-31 = test system: UO-31
ACHN = test system: ACHN
DLD-1 = test system: DLD-1
EKVX = test system: EKVX
HOP-92 = test system: HOP-92
SK-MEL-28 = test system: SK-MEL-28
XF498 = test system: XF498

COC(=O)C(C(=O)C(=O)Nc1ccc(C(F)(F)F)cc1[N+](=O)[O-])c1csc(-n2nc(-c3ccccc3)cc2-c2ccccc2)n1 (configuration not stated)
GI50 (786-0): > 100 µM (inactive) | GI50 (A498): > 100 µM (inactive) | GI50 (A549): > 100 µM (inactive) | GI50 (CAKI-1): > 100 µM (inactive) | GI50 (CCRF-CEM): > 100 µM (inactive) | GI50 (COLO 205): > 100 µM (inactive) | GI50 (DMS-114): > 100 µM (inactive) | GI50 (DMS-273): > 100 µM (inactive) | GI50 (HCC 2998): > 100 µM (inactive) | GI50 (HCT-116): > 100 µM (inactive) | GI50 (HCT-15): > 100 µM | GI50 (HL-60): > 100 µM (inactive) | GI50 (HOP-62): > 100 µM (inactive) | GI50 (HT-29): > 100 µM (inactive) | GI50 (IGROV-1): > 100 µM (inactive) | GI50 (K562): > 100 µM (inactive) | GI50 (KM-20L2): > 100 µM (inactive) | GI50 (KM12): > 100 µM (inactive) | GI50 (LOX IMVI): > 100 µM (inactive) | GI50 (LXFL 529): > 100 µM (inactive) | GI50 (M14): > 100 µM (inactive) | GI50 (M19-MEL): > 100 µM (inactive) | GI50 (MOLT-4): > 100 µM (inactive) | GI50 (Malme-3M): > 100 µM (inactive) | GI50 (NCI-H226): > 100 µM (inactive) | GI50 (NCI-H23): > 100 µM (inactive) | GI50 (NCI-H460): > 100 µM (inactive) | GI50 (NCI-H522): > 100 µM (inactive) | GI50 (OVCAR-3): > 100 µM (inactive) | GI50 (OVCAR-4): > 100 µM (inactive) | GI50 (OVCAR-5): > 100 µM (inactive) | GI50 (OVCAR-8): > 100 µM (inactive) | GI50 (RPMI-8226): > 100 µM (inactive) | GI50 (RXF 393): > 100 µM (inactive) | GI50 (SF-295): > 100 µM (inactive) | GI50 (SF-539): > 100 µM (inactive) | GI50 (SK-MEL-2): > 100 µM (inactive) | GI50 (SK-OV-3): > 100 µM (inactive) | GI50 (SN12C): > 100 µM (inactive) | GI50 (SNB-19): > 100 µM (inactive) | GI50 (SNB-75): > 100 µM (inactive) | GI50 (SNB-78): > 100 µM (inactive) | GI50 (SR): > 100 µM (inactive) | GI50 (SW-620): > 100 µM (inactive) | GI50 (TK-10): > 100 µM (inactive) | GI50 (U-251): > 100 µM (inactive) | GI50 (UACC-257): > 100 µM (inactive) | GI50 (UACC-62): > 100 µM (inactive) | GI50 (UO-31): > 100 µM (inactive)

O=C(NC12CC3CC(CC(F)(C3)C1)C2)c1ccccc1
GI50 (786-0): > 100 µM (inactive) | GI50 (A498): > 100 µM (inactive) | GI50 (A549): > 100 µM (inactive) | GI50 (ACHN): > 100 µM (inactive) | GI50 (CCRF-CEM): > 100 µM (inactive) | GI50 (COLO 205): > 100 µM (inactive) | GI50 (DLD-1): > 100 µM (inactive) | GI50 (DMS-114): > 100 µM (inactive) | GI50 (DMS-273): > 100 µM (inactive) | GI50 (EKVX): > 100 µM (inactive) | GI50 (HCC 2998): > 100 µM (inactive) | GI50 (HCT-116): > 100 µM (inactive) | GI50 (HL-60): > 100 µM (inactive) | GI50 (HOP-62): > 100 µM (inactive) | GI50 (HOP-92): > 100 µM (inactive) | GI50 (HT-29): > 100 µM (inactive) | GI50 (IGROV-1): > 100 µM (inactive) | GI50 (K562): > 100 µM (inactive) | GI50 (KM-20L2): > 100 µM (inactive) | GI50 (KM12): > 100 µM (inactive) | GI50 (LOX IMVI): > 100 µM (inactive) | GI50 (LXFL 529): > 100 µM (inactive) | GI50 (M14): > 100 µM (inactive) | GI50 (M19-MEL): > 100 µM (inactive) | GI50 (MOLT-4): > 100 µM (inactive) | GI50 (Malme-3M): > 100 µM (inactive) | GI50 (NCI-H23): > 100 µM (inactive) | GI50 (NCI-H460): > 100 µM (inactive) | GI50 (NCI-H522): > 100 µM (inactive) | GI50 (OVCAR-3): > 100 µM (inactive) | GI50 (OVCAR-5): > 100 µM (inactive) | GI50 (OVCAR-8): > 100 µM (inactive) | GI50 (RPMI-8226): > 100 µM (inactive) | GI50 (RXF 393): > 100 µM (inactive) | GI50 (SF-539): > 100 µM (inactive) | GI50 (SK-MEL-28): > 100 µM (inactive) | GI50 (SK-MEL-2): > 100 µM (inactive) | GI50 (SK-OV-3): > 100 µM (inactive) | GI50 (SNB-19): > 100 µM (inactive) | GI50 (SNB-75): 43.9 µM (inactive) | GI50 (SNB-78): > 100 µM (inactive) | GI50 (SW-620): > 100 µM (inactive) | GI50 (TK-10): > 100 µM (inactive) | GI50 (U-251): > 100 µM (inactive) | GI50 (UACC-257): > 100 µM (inactive) | GI50 (UACC-62): > 100 µM (inactive) | GI50 (UO-31): 59.2 µM (inactive) | GI50 (XF498): > 100 µM (inactive)
